Measurements from patent publication US9913792B2, “Methods of regulating skin health and appearance with a combination of flavonoid and vitamin B3” (The Procter & Gamble Company, priority 2014, dated 2018).
Where “and” joins values, the source holds several entries; their conditions need not be identical. Equal entries are not always repeated.

Assays:
human keratinocytes = assay: Intracellular ATP levels in keratinocytes stressed with H2O2 (ATP Glo luminescence); assay type: cell-based; conditions: for ATP: luminescent counts; for % Control: ATP
Procedure: The effects of a flavonoid compound, a vitamin B3 compound, a hydrolyzed silk protein and a combination thereof, on intracellular ATP levels were assessed. Keratinocytes were cultured in T150 flasks in EpiLife® medium (MEPICFPRF500, Life Technologies, Grand Island, N.Y.) supplemented with human keratinocyte growth supplement (S-001-5, Life Technologies) and 1% penicillin/streptomycin (15140-122, Life Technologies). When the keratinocytes reached about 70% confluency, they were plated on 96-well plates at a density of 20,000 cells/well. The plates were incubated for 24 hours before the experimental stressor (H2O2) and treatment (niacinamide and/or GSS, Crosilk™ 1000, Crosilk™ Liquid, or HerbEx Silk Peptides) were applied.
The 96-well plate was divided into groups of wells in which (1) no stressor or treatment was applied, (2) stressor was applied but no treatment, and (3) stressor and treatment were applied. For the no stressor or treatment group, the culture medium was simply refreshed. In combination experiments, stressor and two treatments were applied. […] The plates were returned to the CO2 incubator for 90 minutes before ATP was measured.
ATP was measured by removing the media from all treatment groups and controls and replacing the media with ATP Glo® reagent (Promega, Madison, Wis.) per the manufacturer's instructions. After 10 minutes of exposure at room temperature, the luminescence was measured using an EnVision® plate reader (Perkin Elmer, Waltham, Mass.). The luminescent counts that were the output from the measurement were directly proportional to the ATP levels in the cells.
Replicates of each treatment group were averaged together and standard p-value calculations were used (2-sided, equal variance) to calculate significance. In cases where two treatments appeared to synergistically enhance ATP levels, the observed results were compared to the sum of the individual treatment groups to determine significance. The ATP levels measured following treatment are provided below.

Human dermal fibroblasts = assay: Extracellular acidification rate (ECAR) of fibroblasts after hydrogen peroxide challenge; assay type: cell-based
Procedure: The effect of a combination of a flavonoid compound, a vitamin B3 compound, and a hydrolyzed silk protein on cellular energy production was assessed by measuring the extracellular acidification rate (“ECAR”) of fibroblasts after exposure to hydrogen peroxide challenge (FIG. 2). ECAR provides an indirect measure of glycolysis. Treatment with hydrogen peroxide replicates stress induced by UV radiation or chemical pollution and decreases the ECAR. An XF Extracellular Flux Analyzer (Seahorse Bioscience, North Billerica, Mass.) was used to detect extracellular acidification rate. Human dermal fibroblasts were plated at 1×10^5 cells per well in a 96-well plate 24 hours prior to testing. The plate was loaded into the analyzer and equilibrated according to the manufacturer's instructions. Hydrogen peroxide, quercetin (Tocris Bioscience), GSS (BioSpectrum) and niacinamide were loaded into an automated injection port of the XF cartridge plate. The analyzer was programmed to sequentially run a two-minute mix cycle and a four-minute measurement cycle continuously for at least 108 minutes. Data points were collected and recorded by the analyzer. The analyzer was allowed to complete three cycles to establish a baseline value for glycolysis prior to being exposed to the peroxide solution. […]
[…] The ECAR was calculated as a percent of pre-treatment baseline. […]

[1] = 250 uM Niacinamide + 880 uM H202

Row | Compound | ATP (human keratinocytes; [1]) | ATP (human keratinocytes; 0.05% Niacinamide + 800 uM H202, 90 minutes) | % Control (human keratinocytes; [1]) [%] | % Control (human keratinocytes; 0.05% Niacinamide + 800 uM H202) [%] | ECAR as percent of pre-treatment baseline (Human dermal fibroblasts; 1.75 mM hydrogen peroxide, 3% niacinamide alone) | rate of glycolysis (ECAR) in stressed cells (Human dermal fibroblasts; 1.5 mM hydrogen peroxide, 15 uM quercetin, 90 minutes following treatment (FIG. 1))
1 | NC(=O)c1cccnc1 [Niacinamide, niacinamide] | 85645 and 75045 and 80345 | 185268 | 29.5 | 43.3 | provided a protective effect and increased the ECAR | –
2 | O=c1c(O)c(-c2ccc(O)c(O)c2)oc2cc(O)cc(O)c12 [Quercetin, 2-(3,4-dihydroxyphenyl)-3,5,7-trihydroxy-4H-chromen-4-one] | – | – | – | – | – | significantly increase the rate of glycolysis
